Experimental data as given in ChEMBL document CHEMBL5096207, “Identification of a Hydroxypyrimidinone Compound (21) as a Potent APJ Receptor Agonist for the Potential Treatment of Heart Failure” (J Med Chem, 2021).

Tests used:
Apelin receptor = target: T1, Apelin receptor (Homo sapiens, UniProt P35414); assay: Agonist activity at human APJ expressed in HEK293 cells assessed as inhibition of forskolin-stimulated cAMP production incubated for 60 mins by fluorescence based analysis
T1 sequence (P35414 whole entry): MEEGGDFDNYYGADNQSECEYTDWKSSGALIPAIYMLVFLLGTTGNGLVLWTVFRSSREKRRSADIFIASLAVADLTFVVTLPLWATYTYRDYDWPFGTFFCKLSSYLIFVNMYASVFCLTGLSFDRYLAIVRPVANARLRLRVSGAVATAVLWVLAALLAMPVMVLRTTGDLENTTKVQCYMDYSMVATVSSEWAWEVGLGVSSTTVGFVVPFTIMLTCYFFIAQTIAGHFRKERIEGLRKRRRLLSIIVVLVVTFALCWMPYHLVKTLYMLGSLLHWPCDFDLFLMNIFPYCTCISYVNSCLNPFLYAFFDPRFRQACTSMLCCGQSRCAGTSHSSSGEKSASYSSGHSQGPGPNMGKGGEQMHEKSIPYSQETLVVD

[1] = Cmax in overnight fasted cynomolgus monkey at 3 mg/kg, po or 1 mg/kg, iv measured upto 72 hrs by LC/MS/MS analysis; format: ADME, organism-based, Macaca fascicularis; parameters: time < 72 hrs, dose 3 mg/kg, route po; details: in vivo
[2] = Cmax in overnight fasted Sprague-Dawley rat at 1 mg/kg, po or 1 mg/kg, iv measured upto 48 hrs by LC/MS/MS analysis; format: ADME, organism-based; parameters: time < 48 hrs, dose 1 mg/kg, route po; details: in vivo
[3] = Cmax in dog at 1 mg/kg, po or 1 mg/kg, iv by LC/MS/MS analysis; format: ADME, organism-based, Canis lupus familiaris; parameters: dose 1 mg/kg, route po; details: in vivo
[4] = Volume of distribution in overnight fasted Sprague-Dawley rat at 1 mg/kg, po or 1 mg/kg, iv measured upto 48 hrs by LC/MS/MS analysis; format: ADME, organism-based; details: in vivo
[5] = Oral bioavailability in overnight fasted cynomolgus monkey at 3 mg/kg measured upto 72 hrs by LC/MS/MS analysis; format: ADME, organism-based, Macaca fascicularis; details: in vivo
[6] = Volume of distribution at steady state in overnight fasted cynomolgus monkey at 3 mg/kg, po or 1 mg/kg, iv measured upto 72 hrs by LC/MS/MS analysis; format: ADME, organism-based, Macaca fascicularis; details: in vivo
[7] = Toxicity in Sprague-Dawley rat assessed as hemodynamic reponse by measuring increase in heart rate at 0.001 to 0.1 mg/kg/min, iv infusion administered for 15 mins by PV-loop based analysis; format: organism-based; details: in vivo, dose 0.001-0.1 mg/kg/min
[8] = AUC (0 to 24hrs) in overnight fasted Sprague-Dawley rat at 1 mg/kg, po or 1 mg/kg, iv measured upto 48 hrs by LC/MS/MS analysis; format: ADME, organism-based; parameters: time < 48 hrs, dose 1 mg/kg, route po; details: in vivo
[9] = Drug excretion in Sprague-Dawley rat urine at 1 mg/kg, iv; format: ADME, organism-based; details: read-out: Drug excretion
[10] = AUC (0 to 24hrs) in dog at 1 mg/kg, po or 1 mg/kg, iv by LC/MS/MS analysis; format: ADME, organism-based, Canis lupus familiaris; parameters: dose 1 mg/kg, route po; details: in vivo
[11] = Volume of distribution at steady state in dog at 1 mg/kg, po or 1 mg/kg, iv by LC/MS/MS analysis; format: ADME, organism-based, Canis lupus familiaris; details: in vivo
[12] = Drug excretion in dog urine at 1 mg/kg, iv; format: ADME, organism-based, Canis lupus familiaris; details: read-out: Drug excretion
[13] = AUC (0 to 24hrs) in overnight fasted cynomolgus monkey at 3 mg/kg, po or 1 mg/kg, iv measured upto 72 hrs by LC/MS/MS analysis; format: ADME, organism-based, Macaca fascicularis; parameters: time < 72 hrs, dose 3 mg/kg, route po; details: in vivo
[14] = Oral bioavailability in overnight fasted Sprague-Dawley rat at 1 mg/kg measured upto 48 hrs by LC/MS/MS analysis; format: ADME, organism-based; details: in vivo
[15] = Oral bioavailability in dog at 1 mg/kg by LC/MS/MS analysis; format: ADME, organism-based, Canis lupus familiaris; details: in vivo

EC50 (Apelin receptor) [nM] | Cmax [1] [nM] | Cmax [2] [nM] | Cmax [3] [nM] | Vdss [4] [L/kg] | bioavailability [5] [%] | Vdss [6] [L/kg] | AUC(0-t) at 48 h [8] [µM·h] | dose excreted [9] [%] | AUC(0-t) [10] [µM·h] | Vdss [11] [L/kg] | dose excreted [12] [%] | AUC(0-t) at 72 h [13] [µM·h] | bioavailability [14] [%] | bioavailability [15] [%] | SMILES | Activity [7]
0.4 |  |  |  |  |  |  |  |  |  |  |  |  |  |  | CCOCc1nc(=O)c(C(=O)N2CC[C@H](c3ccccc3)C2)c(O)n1-c1c(OC)cccc1OC | 
 | 1400 | 2200 | 6500 | 1.6 | 27 | 0.2 | 3.7 | 4 | 14.2 | 0.2 | < 4 | 2.5 | 54 | 76 | CCc1cccc(CC)c1-n1c(-c2ccn(C)n2)nc(=O)c(C(=O)N2CC[C@@H](c3ncc(Cl)cc3F)C2)c1O | Non-Toxic
 |  |  |  |  |  |  |  |  |  |  |  |  |  |  | CC(CCc1ccc(O)cc1)NCCc1ccc(O)c(O)c1 (configuration not stated) [DOBUTAMINE] | Toxic
